Data taken from patent US8658794B2, “8-methyl-1-phenyl-imidazol[1,5-a]pyrazine compounds as Lck inhibitors and uses thereof” (Merck Sharp & Dohme B.V., priority 2010, dated 2014).

Each compound was assayed against T1, N-terminal His6-tagged recombinant full-length human Lck (Homo sapiens, UniProt P06239) (assay: Lck IMAP assay). Details: ATP 6 μM (KM,ATP), enzyme pre-incubated with compounds for 60 minutes, values given as bins.
T1 construct: N-terminal His6-tagged recombinant full-length human Lck; His6 (N); purchased Millipore
T1 sequence (P06239 whole entry): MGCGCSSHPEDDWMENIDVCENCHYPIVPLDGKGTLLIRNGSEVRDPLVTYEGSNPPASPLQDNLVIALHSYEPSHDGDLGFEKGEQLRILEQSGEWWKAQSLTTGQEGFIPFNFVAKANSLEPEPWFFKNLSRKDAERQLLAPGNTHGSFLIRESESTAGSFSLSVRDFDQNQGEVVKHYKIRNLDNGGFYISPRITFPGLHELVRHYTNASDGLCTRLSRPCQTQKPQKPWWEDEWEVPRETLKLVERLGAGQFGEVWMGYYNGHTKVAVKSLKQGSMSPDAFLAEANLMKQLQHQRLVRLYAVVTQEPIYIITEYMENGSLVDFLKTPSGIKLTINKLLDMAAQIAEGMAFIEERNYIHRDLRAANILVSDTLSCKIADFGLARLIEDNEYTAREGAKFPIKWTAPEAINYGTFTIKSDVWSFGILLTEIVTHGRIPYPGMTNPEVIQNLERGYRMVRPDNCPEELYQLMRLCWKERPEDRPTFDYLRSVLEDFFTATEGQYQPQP
Type: biochemical
In short: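 Full-length His6-Lck at 0.1 U/ml was preincubated 60 min with compound, then run 120 min at room temperature with 100 nM fluorescein-p34cdc2 peptide and 6 μM ATP (KM) in pH 7.2 Tris buffer. Read-out by IMAP fluorescence polarization; pIC50 from ten-point √10 dilutions starting at 10^-6 M.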

| Compound | IC50 [nM] |
| --- | --- |
| COc1cc(-c2nc(N3CCC(N4CCOCC4)CC3)n3ccnc(C)c23)ccc1NC(=O)OC(C)C [Example 25, Isopropyl 2-methoxy-4-(8-methyl-3-(4-morpholinopiperidin-1-yl)imidazo[1,5-a]pyrazin-1-yl)phenylcarbamate] | 10 to 100 |
| COc1cc(-c2nc([C@H]3CC[C@@H](N4CC(F)(F)C4)CC3)n3ccnc(C)c23)ccc1NC(=O)c1cc2c(OC)cccc2n1C [Example 10, N-(4-(3-((cis)-4-(3,3-difluoroazetidin-1-yl)cyclohexyl)-8-methylimidazo[1,5-a]pyrazin-1-yl)-2-methoxyphenyl)-4-methoxy-1-methyl-1H-indole-2-carboxamide] | ≤ 10 |
| CCC[C@H](C)OC(=O)Nc1ccc(-c2nc([C@H]3CC[C@@H](N4CCN(C)CC4)CC3)n3ccnc(C)c23)cc1OC [Example 33f, (S)-pentan-2-yl 2-methoxy-4-(8-methyl-3-((cis)-4-(4-methylpiperazin-1-yl)cyclohexyl)imidazo[1,5-a]pyrazin-1-yl)phenylcarbamate] | ≤ 10 |
| CCC[C@H](C)OC(=O)Nc1ccc(-c2nc([C@H]3C[C@H](N4CCN(C)CC4)C3)n3ccnc(C)c23)cc1OC [Example 27, (S)-Pentan-2-yl 2-methoxy-4-(8-methyl-3-((1r,3r)-3-(4-methylpiperazin-1-yl)cyclobutyl)imidazo[1,5-a]pyrazin-1-yl)phenylcarbamate] | ≤ 10 |
| COc1cc(-c2nc(C3CCOCC3)n3ccnc(C)c23)ccc1NC(=O)c1cc2ccccc2n1C [Example 1, N-[2-Methoxy-4-[8-methyl-3-(tetrahydro-2H-pyran-4-yl)imidazo[1,5-a]pyrazine]phenyl]-1-methyl-1H-indole-2-carboxamide] | ≤ 10 |
| COc1cc(-c2nc(C3CCNCC3)n3ccnc(C)c23)ccc1NC(=O)c1cc2c(OC)cccc2n1C [Example 17, 4-Methoxy-N-(2-methoxy-4-(8-methyl-3-(piperidin-4-yl)imidazo[1,5-a]pyrazin-1-yl)phenyl)-1-methyl-1H-indole-2-carboxamide] | ≤ 10 |
| COc1cc(-c2nc([C@H]3CC[C@H](O)CC3)n3ccnc(C)c23)ccc1NC(=O)c1cc2c(OC)cccc2n1C [Example 6, N-(4-(3-((trans)-4-hydroxycyclohexyl)-8-methylimidazo[1,5-a]pyrazin-1-yl)-2-methoxyphenyl)-4-methoxy-1-methyl-1H-indole-2-carboxamide] | ≤ 10 |
| COC(=O)N1CCC(c2nc(-c3ccc(NC(=O)c4cc5c(OC)cccc5n4C)c(OC)c3)c3c(C)nccn23)CC1 [Example 22, Methyl 4-(1-(3-methoxy-4-(4-methoxy-1-methyl-1H-indole-2-carboxamido)phenyl)-8-methylimidazo[1,5-a]pyrazin-3-yl)piperidine-1-carboxylate] | ≤ 10 |
| COc1cc(-c2nc(Cn3ccnc3)n3ccnc(C)c23)ccc1NC(=O)c1cc2c(OC)cccc2n1C [Example 15, N-(4-(3-((1H-imidazol-1-yl)methyl)-8-methylimidazo[1,5-a]pyrazin-1-yl)-2-methoxyphenyl)-4-methoxy-1-methyl-1H-indole-2-carboxamide] | 100 to 1000 |
| CCC[C@H](C)OC(=O)Nc1ccc(-c2nc([C@H]3CC[C@@H](N4CCN(C(C)=O)CC4)CC3)n3ccnc(C)c23)cc1OC [Example 26f, (S)-pentan-2-yl 4-(3-((cis)-4-(4-acetylpiperazin-1-yl)cyclohexyl)-8-methylimidazo[1,5-a]pyrazin-1-yl)-2-methoxyphenylcarbamate] | ≤ 10 |

Now from value to compound:

| IC50 [nM] | Compound |
| --- | --- |
| ≤ 10 | COc1cccc2c1cc(C(=O)Nc1ccc(-c3nc([C@H]4CC[C@H](N5CCN(C)CC5)CC4)n4ccnc(C)c34)cc1O)n2C [Example 62, N-(2-hydroxy-4-(8-methyl-3-((trans)-4-(4-methylpiperazin-1-yl)cyclohexyl)imidazo[1,5-a]pyrazin-1-yl)phenyl)-4-methoxy-1-methyl-1H-indole-2-carboxamide] |
| 10 to 100 | COc1cc(-c2nc([C@@H]3CCN(C4CCOCC4)C3)n3ccnc(C)c23)ccc1NC(=O)c1cc2c(OC)cccc2n1C [Example 35, (R)-4-methoxy-N-(2-methoxy-4-(8-methyl-3-(1-(tetrahydro-2H-pyran-4-yl)pyrrolidin-3-yl)imidazo[1,5-a]pyrazin-1-yl)phenyl)-1-methyl-1H-indole-2-carboxamide] |
| ≤ 10 | COc1cc(-c2nc([C@H]3CC[C@H](N4CCN(C)CC4)CC3)n3ccnc(C)c23)ccc1NC(=O)c1cc2ccsc2n1C [Example 56, N-(2-methoxy-4-(8-methyl-3-((trans)-4-(4-methylpiperazin-1-yl)cyclohexyl)imidazo[1,5-a]pyrazin-1-yl)phenyl)-6-methyl-6H-thieno[2,3-b]pyrrole-5-carboxamide] |
| ≤ 10 | COc1cc(-c2nc([C@H]3CC[C@H](N4CCN(C)CC4)CC3)n3ccnc(C)c23)ccc1NC(=O)c1cc2ccsc2[nH]1 [Example 57, N-(2-Methoxy-4-(8-methyl-3-((trans)-4-(4-methylpiperazin-1-yl)cyclohexyl)imidazo[1,5-a]pyrazin-1-yl)phenyl)-6H-thieno[2,3-b]pyrrole-5-carboxamide] |
| ≤ 10 | COc1cc(-c2nc(C3CCN(C)C(=O)C3)n3ccnc(C)c23)ccc1NC(=O)c1cc2c(OC)cccc2n1C (centres unmarked) [Example 38, 4-Methoxy-N-(2-methoxy-4-(8-methyl-3-(1-methyl-2-oxopiperidin-4-yl)imidazo[1,5-a]pyrazin-1-yl)phenyl)-1-methyl-1H-indole-2-carboxamide] |
| 10 to 100 | COc1cc(-c2nc(C3CCOCC3)n3ccnc(C)c23)ccc1NC(=O)O[C@@H](C)CCO [Example 44, (S)-4-hydroxybutan-2-yl 2-methoxy-4-(8-methyl-3-(tetrahydro-2H-pyran-4-yl)imidazo[1,5-a]pyrazin-1-yl)phenylcarbamate] |
| ≤ 10 | CNC[C@]1(O)CC[C@H](c2nc(-c3ccc(NC(=O)c4cc5c(OC)cccc5n4C)c(OC)c3)c3c(C)nccn32)CC1 [Example 72, N-(4-(3-((trans)-4-hydroxy-4-((methylamino)methyl)cyclohexyl)-8-methylimidazo[1,5-a]pyrazin-1-yl)-2-methoxyphenyl)-4-methoxy-1-methyl-1H-indole-2-carboxamide] |
| ≤ 10 | COc1cc(-c2nc(C3CCC(=O)CC3)n3ccnc(C)c23)ccc1NC(=O)c1cc2c(OC)cccc2n1C [Example 71, 4-Methoxy-N-(2-methoxy-4-(8-methyl-3-(4-oxocyclohexyl)imidazo[1,5-a]pyrazin-1-yl)phenyl)-1-methyl-1H-indole-2-carboxamide] |
| ≤ 10 | CCC[C@H](C)OC(=O)Nc1ccc(-c2nc([C@H]3CC[C@H](CNC(C)=O)CC3)n3ccnc(C)c23)cc1OC [Example 69, (S)-pentan-2-yl 4-(3-((trans)-4-(acetamidomethyl)cyclohexyl)-8-methylimidazo[1,5-a]pyrazin-1-yl)-2-methoxyphenylcarbamate] |
| ≤ 10 | COc1cc(-c2nc(C3CC(=O)N(C)C3)n3ccnc(C)c23)ccc1NC(=O)c1cc2c(OC)cccc2n1C (centres unmarked) [Example 73, 4-Methoxy-N-(2-methoxy-4-(8-methyl-3-(1-methyl-5-oxopyrrolidin-3-yl)imidazo[1,5-a]pyrazin-1-yl)phenyl)-1-methyl-1H-indole-2-carboxamide] |
| ≤ 10 | COc1ccc2c(C(=O)Nc3ccc(-c4nc([C@H]5CC[C@H](N6CCN(C)CC6)CC5)n5ccnc(C)c45)cc3OC)n[nH]c2c1 [Example 66, 6-Methoxy-N-(2-methoxy-4-(8-methyl-3-((trans)-4-(4-methylpiperazin-1-yl)cyclohexyl)imidazo[1,5-a]pyrazin-1-yl)phenyl)-1H-indazole-3-carboxamide] |
| ≤ 10 | COc1cc2cc(C(=O)Nc3ccc(-c4nc([C@H]5CC[C@H](N6CCN(C)CC6)CC5)n5ccnc(C)c45)cc3OC)n(C)c2cn1 [Example 75, 5-Methoxy-N-(2-methoxy-4-(8-methyl-3-((trans)-4-(4-methylpiperazin-1-yl)cyclohexyl)imidazo[1,5-a]pyrazin-1-yl)phenyl)-1-methyl-1H-pyrrolo[2,3-c]pyridine-2-carboxamide] |
| ≤ 10 | COc1cc(-c2nc([C@H]3CC[C@H](NCC(F)F)CC3)n3ccnc(C)c23)ccc1NC(=O)c1cc2c(OC)cccc2n1C [Example 40, N-(4-(3-((trans)-4-(2,2-Difluoroethylamino)cyclohexyl)-8-methylimidazo[1,5-a]pyrazin-1-yl)-2-methoxyphenyl)-4-methoxy-1-methyl-1H-indole-2-carboxamide] |
